The term ED50 denotes the midpoint of the dose-response relation. As usually defined, the LD50 is the dose at which mortality reaches 50%. The low end stands for greater toxicity, the high end for lower toxicity.

The text below walks through data of patent publication US4902794A, “Triazolo-benzodiazepines” (The Upjohn Company, priority 1983, dated 1990).

Data set [1] relates to mice. Put plainly: Chimney test. The class given is in vivo. As to conditions: Mus musculus, ip, intraperitoneal, failure to back up and out of vertical glass cylinder within 30 seconds, read-out: ED50, Chimney test (Ch). From the text: (§1) Sedative effects of 8-chloro-1-(hydroxymethyl)-6-phenyl-4H-s-triazolo[4,3-a][1,4]benzodiazepine (A) are shown by the following tests in mice:
The test determines the ability of mice to back up and out of a vertical glass cylinder within 30 seconds. At the effective dosage, 50% of the mice failed doing it.

Data set [2] deals with mice. Put plainly: Nicotine antagonism test. It is filed as in vivo. The note with it: Mus musculus, ip, intraperitoneal, nicotine salicylate 2 mg./kg. thirty minutes later. As for the experimental part:
as §1
Nicotine antagonism test: Mice in a group of 6 are injected with the test compound-8-chloro-1-(hydroxymethyl)-6phenyl-4H-s-triazolo[4,3-a][1,4]benzodiazepine. Thirty minutes later the mice including control (untreated) mice are injected with nicotine salicylate (2 mg./kg.). The control mice show overstimulation, i.e., (1) running convulsions followed by (2) tonic extensor fits; followed by (3) death. […] (ED50) was necessary.

The subject of data set [3] is mice. Put plainly: Pedestal test. It is filed as in vivo. As to conditions: Mus musculus, ip, intraperitoneal, stay on the pedestal for more than 1 minute, read-out: ED50, Pedestal test (P). As for the experimental part: as §1
Pedestal test: The untreated mouse leaves the pedestal in less than a minute to climb back to the floor of the standard mouse box. Tranquilized mice will stay on the pedestal for more than 1 minute.

The test system of data set [4] is mice. As to the kind of experiment: Dish test. The class given is in vivo. As to conditions: Mus musculus, ip, intraperitoneal, remaining in the dish for more than 3 minutes, read-out: ED50, Dish test (D). Here is the method: as §1
Dish test: Mice in Petri dishes (10 cm. diameter, 5 cm. higher, partially embedded in wood shavings), climb out in a very short itme, when not treated. Mice remaining in the dish for more than 3 minutes indicates tranquilization. The ED50 equals the dose of test compound at which 50% of the mice remain in the dish. The ED50 (intraperitoneal administration) in this test was 2.0 mg./kg.

Data set [5] is described as follows: LD50 (lethal dose) in mice. As to conditions: mouse, in vivo.
The mark [6] stands for this setting: read-out: ED50, Nicotine antagonism (3) test (Ni): protection of 50% of the mice against death.

SMILES strings stand for the structures. A value given as a limit tells only on which side of the number the result lay.

`OCc1nnc2n1-c1ccc(Cl)cc1C(c1ccccc1)=NC2` [A, 8-chloro-1-(hydroxymethyl)-6-phenyl-4H-s-triazolo[4,3-a][1,4]benzodiazepine]: the ED50 is 0.63 mg/kg in data set [1]; 0.08 mg/kg in data set [2] (read-out: ED50, Nicotine antagonism (2) test: dosage protecting 50% of the mice against tonic extensor fits); 0.1 mg/kg in data set [2] (setting [6]); 1.56 mg/kg in data set [3]; 2 mg/kg in data set [4]. For the same molecule, the LD50 in data set [5] was greater than 100 mg/kg.
As to `CCOCc1nnc2n1-c1ccc(Cl)cc1C(c1ccccc1)=NC2` [B, 8-Chloro-1-(ethoxymethyl)-6-phenyl-4H-s-triazolo[4,3-a][1,4]benzodiazepine], the ED50 in data set [1] stood at 1 mg/kg; in data set [2] (setting [6]) it was 0.6 mg/kg; in data set [3], 1.4 mg/kg; in data set [4], 1.6 mg/kg. Also, in data set [5], the LD50 is greater than 100 mg/kg.
Turning to `OCc1nnc2n1-c1ccc(Cl)cc1C(c1ccccc1Cl)=NC2` [C, 8-Chloro-1-(hydroxymethyl)-6-(o-chlorophenyl)-4H-s-triazolo[4,3-a][1,4]benzodiazepine], the ED50 was 0.04 mg/kg in data set [1], 0.032 mg/kg in data set [2] (setting [6]), 0.03 mg/kg in data set [3] and 0.03 mg/kg in data set [4]. In data set [5], the LD50 is greater than 100 mg/kg.
Consider `O=C(O)CCC(=O)OCc1nnc2n1-c1ccc(Cl)cc1C(c1ccccc1Cl)=NC2` [D, Hydrogensuccinate ester of 8-chloro-1-(hydroxymethyl)-6-(o-chlorophenyl)-4H-s-triazolo[4,3-a][1,4]benzodiazepine], for which the ED50 turned out to be 0.125 mg/kg in data set [1], 0.09 mg/kg in data set [2] (setting [6]), 0.2 mg/kg in data set [3] and 0.125 mg/kg in data set [4]. The same molecule had an LD50 in data set [5] greater than 25 mg/kg.
